# Test results reported in patent US20210261621A1, “Preparation of Dilipid Polymixins and Use Thereof as Antimicrobial Adjuvants” (priority 2018, published 2021).
# Read-outs that look alike come from different tables or passages of the source. Positions of bridges follow the written chain, without caps; N, C: chain ends. Non-standard residues stand in square brackets, D forms with d. Residues, ends and D or L forms follow the SMILES beside them. *: point of attachment. Acetyl(1-adamantyl) = O=C(CC12CC3CC(CC(C3)C1)C2)*; Lauroyl = CCCCCCCCCCCC(=O)*; Dab = NCC[C@H](N)C(=O)O; Butyryl = CCCC(=O)*
# Key:
# E. coli 94393 = format: cell-based, Escherichia coli; conditions: 94393
# Method: (§1) We then addressed the possibility for the dilipid polymyxins to display enhanced antibacterial activity against colistin-resistant Gram-negative pathogens. […] The extended hydrophobic region of the dilipid polymyxin may provide additional hydrophobic interactions to the outer membrane of colistin-resistant organisms. Eight MDR colistin-resistant Gram-negative bacterial isolates were tested, including two E. coli isolates harboring the mcr-1 plasmid-encoded polymyxin resistance gene. We found no difference between the antibacterial activity of dilipid polymyxins and colistin against colistin-resistant Gram-negative bacteria (Table 3).
# (§2) Bacterial strains were either obtained from the American Type Culture Collection (ATCC), Canadian National Intensive Care Unit (CAN-ICU) surveillance study or the Canadian Ward Surveillance (CANWARD) study. Strains from both CAN-ICU and CANWARD are isolates recovered from patients diagnosed with a presumed infectious disease that were admitted in a participating medical center across Canada. Efflux-deficient strain PAO200 (lacking MexAB-OprM efflux system) and PA0750 (lacking MexAB-OprM, MexCD-OprJ, MexEF-OprN, MexJK and MexXY efflux systems, and the outer membrane protein OpmH) were kindly gifted by Dr. Ayush Kumar (University of Manitoba).
# (§3) The in vitro antibacterial activity of the compounds studied were assessed by broth microdilution susceptibility testing following CLSI guidelines. Bacterial cultures were grown overnight prior to the assay. The overnight grown cultures were diluted in saline to 0.5 McFarland turbidity, followed by 1:50 dilution in Mueller-Hinton broth (MHB) for inoculation to a final concentration of approximately 5×10^5 colony forming units/mL. Testing was performed on 96-well plates where the tested compounds were 2-fold serially diluted in MHB and incubated with equal volumes of bacterial inoculum at 37° C. for 18 h. […] Wells containing MHB with or without bacterial cells were used as positive or negative control, respectively.
# E. coli 94474 = format: cell-based, Escherichia coli; conditions: 94474
# Method: as §1, §2, §3
# K. pneumoniae 113254 = format: cell-based, Klebsiella pneumoniae; conditions: 113254
# Method: as §1, §2, §3
# K. pneumoniae 113250 = format: cell-based, Klebsiella pneumoniae; conditions: 113250
# Method: as §1, §2, §3
# E. coli 107115 = format: cell-based, Escherichia coli
# From the text: as §2, §3
# E. coli ATCC 25922 = format: cell-based, Escherichia coli
# From the text: as §2, §3
# E. coli CAN-ICU 63074 = format: cell-based, Escherichia coli
# From the text: as §2, §3
# E. coli CAN-ICU 61714 = format: cell-based, Escherichia coli
# From the text: as §2, §3
# MRSA ATCC 33592 = format: cell-based, Staphylococcus aureus; conditions: MRSA ATCC 33592 (methicillin-resistant Staphylococcus aureus)
# From the text: as §2, §3
# S. aureus ATCC 29213 = format: cell-based, Staphylococcus aureus; conditions: S. aureus ATCC 29213
# From the text: as §2, §3
# A. baumannii 92247 = format: cell-based, Acinetobacter baumannii; conditions: 92247
# Method: as §1, §2, §3
# P. aeruginosa 101243 = format: cell-based, Pseudomonas aeruginosa; conditions: 101243
# Method: as §1, §2, §3
# P. aeruginosa 114228 = format: cell-based, Pseudomonas aeruginosa; conditions: 114228
# Method: as §1, §2, §3
# P. aeruginosa 91433 = format: cell-based, Pseudomonas aeruginosa; conditions: 91433
# Method: as §1, §2, §3
# [1] = tested on: P. aeruginosa PA262-101856; format: cell-based, Pseudomonas aeruginosa
# How it was run: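 Overnight cultures were standardized to 0.5 McFarland, diluted 1:50 into Mueller-Hinton broth for a final inoculum near 5×10^5 CFU/mL, then mixed with two-fold serially diluted compound. Plates were incubated 18 h at 37° C. following CLSI guidelines.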
Compound,MIC (E. coli 94393) [µg/mL],MIC (E. coli 94474) [µg/mL],MIC (K. pneumoniae 113254) [µg/mL],MIC (K. pneumoniae 113250) [µg/mL],MIC (E. coli 107115; E. coli 107115) [µg/mL],MIC (E. coli ATCC 25922; E. coli ATCC 25922) [µg/mL],MIC (E. coli CAN-ICU 63074; E. coli CAN-ICU 63074) [µg/mL],MIC (E. coli CAN-ICU 61714; E. coli CAN-ICU 61714) [µg/mL],MIC (MRSA ATCC 33592) [µg/mL],MIC (S. aureus ATCC 29213) [µg/mL],MIC (A. baumannii 92247) [µg/mL],MIC (P. aeruginosa 101243) [µg/mL],MIC (P. aeruginosa 114228) [µg/mL],MIC (P. aeruginosa 91433) [µg/mL],MIC ([1]; P. aeruginosa PA262-101856) [µg/mL],MIC (E. coli 107115; 107115) [µg/mL],MIC (E. coli ATCC 25922; ATCC 25922) [µg/mL],MIC (E. coli CAN-ICU 63074; CAN-ICU 63074) [µg/mL],MIC (E. coli CAN-ICU 61714; CAN-ICU 61714) [µg/mL],MIC ([1]; PA262-101856) [µg/mL]
"CC(C)C[C@@H]1NC(=O)[C@@H](Cc2ccccc2)NC(=O)[C@H](CCN)NC(=O)[C@@H](NC(=O)[C@H](CCN)NC(=O)[C@@H](NC(=O)[C@H](CCNC(=O)CC23CC4CC(CC(C4)C2)C3)NC(=O)CC23CC4CC(CC(C4)C2)C3)[C@@H](C)O)CCNC(=O)[C@H]([C@@H](C)O)NC(=O)[C@H](CCN)NC(=O)[C@H](CCN)NC1=O [Compound 4, Diadamantane Acetic Acid (Di-Adamantyl) Polymyxin] ({Acetyl(1-adamantyl)}-[Dab](Acetyl(1-adamantyl))T[Dab][Dab][Dab][dF]L[Dab][Dab]T; lactam 4-C)",16,8,>64,>64,4,4,64,64,32,16,8,64,8,8,8,–,–,–,–,–
"CCCCCCCCCCCC(=O)NCC[C@H](NC(=O)CCCCCCCCCCC)C(=O)N[C@H](C(=O)N[C@@H](CCN)C(=O)N[C@H]1CCNC(=O)[C@H]([C@@H](C)O)NC(=O)[C@H](CCN)NC(=O)[C@H](CCN)NC(=O)[C@H](CC(C)C)NC(=O)[C@@H](Cc2ccccc2)NC(=O)[C@H](CCN)NC1=O)[C@@H](C)O [Compound 3, Didodecanoic Acid (Di-C12) Polymyxin] (Lauroyl-[Dab](Lauroyl)T[Dab][Dab][Dab][dF]L[Dab][Dab]T; lactam 4-C)",32,>64,>64,>64,–,–,–,–,>128,>128,32,16,>128,8,–,8,16,64,128,32
"CCCC(=O)NCC[C@H](NC(=O)CCC)C(=O)N[C@H](C(=O)N[C@@H](CCN)C(=O)N[C@H]1CCNC(=O)[C@H]([C@@H](C)O)NC(=O)[C@H](CCN)NC(=O)[C@H](CCN)NC(=O)[C@H](CC(C)C)NC(=O)[C@@H](Cc2ccccc2)NC(=O)[C@H](CCN)NC1=O)[C@@H](C)O [Compound 1, Dibutyric Acid (Di-C4) Polymyxin] (Butyryl-[Dab](Butyryl)T[Dab][Dab][Dab][dF]L[Dab][Dab]T; lactam 4-C)",>64,>64,>64,>64,–,>128,>128,>128,>128,>128,>64,>128,>128,>128,>128,128,–,–,–,–
